Series [1] can be described thus: logD(7.4) determination by partition between 1-octanol and phosphate buffer pH 7.4. Type of series: physicochemical. From the text: For peptidic radiotracers, hydrophilicity is an important parameter as it can enable the initial assessment of the route by which the radioligand is metabolized and excreted. The commonly determined measure for the hydrophilicity/lipophilicity profile of a radiotracer is the determination of its logD(7.4) value and is investigated by partition experiments between an aqueous phosphate buffer phase at pH 7.4 and 1-octanol. For [^68Ga]Ga-1–[^68Ga]Ga-11, logD(7.4) values of −3.44 ± 0.08 ([^68Ga]Ga-1), −3.51 ± 0.22 ([^68Ga]Ga-2), −3.92 ± 0.09 ([^68Ga]Ga-3), −4.01 ± 0.13 ([^68Ga]Ga-4), −3.91 ± 0.06 ([^68Ga]Ga-5), −3.86 ± 0.11 ([^68Ga]Ga-6), −3.03 ± 0.20 ([^68Ga]Ga-7), −3.16 ± 0.11 ([^68Ga]Ga-8), −2.93 ± 0.08 ([^68Ga]Ga-9), −3.92 ± 0.09 ([^68Ga]Ga-10) and −3.98 ± 0.06 ([^68Ga]Ga-11) were obtained in these partition experiments. This high hydrophilicity of the tracers can be considered beneficial, as it should result in low, non-specific liver accumulation of the agents. This is advantageous with regard to the visualization of malignant liver lesions (especially hepatocellular carcinomas (HCCs) and liver metastases of colon carcinoma), which mostly overexpress the EGFR [46, 47] and, thus, represent an important area of application of an EGFR-specific peptidic radiotracer.
Determination of the logD(7.4) values of [^68Ga]Ga-1–[^68Ga]Ga-11. The aqueous phasepH7.4/1-octanol partition coefficient (logD(7.4)) of the developed radiotracers was determined by addition of a solution of the respective radiolabeled peptide (5 µL, 0.5–2 MBq) to a mixture of 1-octanol (800 µL) and phosphate buffer (0.05 M, pH 7.4, 795 µL). The mixtures were vigorously shaken for 5 min on a mechanical shaker and subsequently centrifuged at 13,000 rpm (12,100× g) for 2 min to achieve complete phase separation. 125 µL of each phase were taken and the amount of radioactivity in each phase was determined by γ-counting. Experiments were performed thrice, each in triplicate.

Series [2] can be described thus: stability towards degradation by human serum peptidases. It counts as in vitro ADME. To be noted: pooled human serum, 37 °C, incubation up to 90 min, intact tracer by radio-HPLC; read-out: Calculated Half-Life in Human Serum. The method, then: For the applicability of radiopeptides, their stability towards degradation by human serum peptidases is of importance as a low stability towards metabolization interferes with successful target visualization. Thus, the stability of the radiopeptides [^68Ga]Ga-1–[^68Ga]Ga-11 against degradation was determined by incubation with commercially available pooled human serum of healthy donors at 37 °C for 0, 15, 30, 45, 60, 75 and 90 min. At these time points, the fraction of the intact radiopeptides was again determined by analytical radio-HPLC, and the serum half-life of each radioligand was calculated.
Determination of the stability of [^68Ga]Ga-1–[^68Ga]Ga-11 towards degradation by human serum peptidases. A sample of the respective radiolabeled peptide (125 µL, 10–30 MBq, pH 7.4) was added to commercially available pooled human serum (500 µL) and warmed to 37 °C. At defined time-points (t = 0, […]), 75 µL of the mixture were added to 75 µL ice-cold ethanol, further cooled on ice for 5 min, and centrifuged at 13,000 rpm (12,100× g) for 90 s. The supernatant was collected, the activity of the supernatant and the precipitate measured, where after the supernatant was analyzed by analytical radio-HPLC and the amount of intact tracer was quantified. Experiments were performed thrice for each radioligand.

Setting [3] is: 1-octanol / phosphate buffer 0.05 M, read-out: logD(7.4).

Where two headings read alike, the source gives them in different places. Where a SMILES comes first, the peptide text is derived from it. Bridges are numbered along the chain shown (N, C = ends). [ ]: non-standard residue; d: D form. The star is where a group is joined. X1 = O=C(O)CN1CCN(CC(=O)O)CCN([C@H](CCC(=O)*)C(=O)O)CC1; PEG6 = NCCOCCOCCOCCOCCOCCOCCC(=O)O

The term logD denotes lipophilicity at a set pH, counting ionised and neutral species. In turn, `CC(C)C[C@H](NC(=O)CCOCCOCCOCCOCCOCCOCCNC(=O)CC[C@H](C(=O)O)N1CCN(CC(=O)O)CCN(CC(=O)O)CC1)C(=O)N[C@@H](C)C(=O)N[C@@H](CCCNC(=N)N)C(=O)N[C@@H](CC(C)C)C(=O)N[C@@H](CC(C)C)C(=O)N[C@H](C(=O)O)[C@@H](C)O` [[^68Ga]Ga-2, metal not drawn] registered a logD in series [1] of -3.51 ± 0.22.
What is called half-life is the time needed for the level to fall by half in the phase considered. `CC[C@H](C)[C@@H]1NC(=O)[C@H](Cc2ccc(O)cc2)NC(=O)CNC(=O)[C@H](C(C)C)NC(=O)[C@H](C(C)C)NC(=O)[C@@H](NC(=O)[C@@H](N)CC(N)=O)CSSC[C@@H](C(=O)N[C@@H](CCC(N)=O)C(=O)NCCOCCOCCOCCOCCOCCOCCC(=O)N[C@@H](CCCCNC(=O)CC[C@H](C(=O)O)N2CCN(CC(=O)O)CCN(CC(=O)O)CC2)C(N)=O)NC(=O)[C@H](CCCNC(=N)N)NC(=O)[C@H](CCC(=O)O)NC(=O)CNC1=O` [[^68Ga]Ga-10, metal not drawn] (H-NCVVGYIGERCQ[PEG6]K(X1)-NH2; disulfide 2-11): in series [1] (setting [3]), the logD was -3.92 ± 0.09. Further, in series [2], the half-life was 11.7 ± 0.703 h.
In turn, `CSCC[C@H](NC(=O)[C@@H]1CSSC[C@H](NC(=O)[C@@H](N)CCC(=O)O)C(=O)N2CCC[C@H]2C(=O)N[C@@H](CC(C)C)C(=O)N[C@@H](CO)C(=O)N[C@@H](Cc2c[nH]cn2)C(=O)N[C@@H](CC(=O)O)C(=O)NCC(=O)N[C@@H](Cc2ccc(O)cc2)C(=O)N[C@@H](CS)C(=O)N[C@@H](CC(C)C)C(=O)N[C@@H](Cc2c[nH]cn2)C(=O)N[C@@H](CC(=O)O)C(=O)NCC(=O)N[C@@H](C(C)C)C(=O)N1)C(=O)NCCOCCOCCOCCOCCOCCOCCC(=O)N[C@@H](CCCCNC(=O)CC[C@H](C(=O)O)N1CCN(CC(=O)O)CCN(CC(=O)O)CC1)C(N)=O` [[^68Ga]Ga-8, metal not drawn] (H-ECPLSHDGYCLHDGVCM[PEG6]K(X1)-NH2; disulfide 2-16) gave a logD in series [1] of -3.16 ± 0.11.
Take `C[C@@H](O)[C@H](NC(=O)[C@H](CCC(N)=O)NC(=O)[C@H](CC(=O)O)NC(=O)[C@H](CO)NC(=O)[C@@H](NC(=O)[C@H](Cc1c[nH]cn1)NC(=O)CCOCCOCCOCCOCCOCCOCCNC(=O)CC[C@H](C(=O)O)N1CCN(CC(=O)O)CCN(CC(=O)O)CC1)[C@@H](C)O)C(=O)N[C@@H](CC(N)=O)C(=O)O` [[^68Ga]Ga-4, metal not drawn] ({X1-PEG6}-HTSDQTN-OH): the logD in series [1] (setting [3]) was -4.01 ± 0.13. For the same compound, the half-life in series [2] is 40.5 ± 0.645 h.
Turning to `CC[C@H](C)[C@H](NC(=O)[C@@H]1CCCN1C(=O)[C@H](Cc1ccc(O)cc1)NC(=O)[C@H](CO)NC(=O)CCOCCOCCOCCOCCOCCOCCNC(=O)CC[C@H](C(=O)O)N1CCN(CC(=O)O)CCN(CC(=O)O)CC1)C(=O)N1CCC[C@H]1C(=O)N[C@@H](CC(=O)O)C(=O)N[C@H](C(=O)O)[C@@H](C)O` [[^68Ga]Ga-3, metal not drawn] ({X1-PEG6}-SYPIPDT-OH; C-terminus assumed), in series [1] (setting [3]), the logD was -3.92 ± 0.09. Also, in series [2], the half-life was 135 ± 5.12 h.
In the case of `N=C(N)NCCC[C@H](NC(=O)[C@@H](N)CCC(N)=O)C(=O)N[C@@H](Cc1c[nH]cn1)C(=O)N[C@@H](CCCCN)C(=O)N1CCC[C@H]1C(=O)N[C@@H](CCCNC(=N)N)C(=O)N[C@@H](CCC(=O)O)C(=O)NCCOCCOCCOCCOCCOCCOCCC(=O)N[C@@H](CCCCNC(=O)CC[C@H](C(=O)O)N1CCN(CC(=O)O)CCN(CC(=O)O)CC1)C(N)=O` [[^68Ga]Ga-5, metal not drawn] (H-QRHKPRE[PEG6]K(X1)-NH2), in series [1] (setting [3]), the logD was -3.91 ± 0.06.
In the case of `CC[C@H](C)[C@H](NC(=O)[C@@H](NC(=O)[C@H](CC(N)=O)NC(=O)[C@H](CCC(N)=O)NC(=O)[C@@H]1CCCN1C(=O)[C@@H](NC(=O)[C@H](Cc1ccc(O)cc1)NC(=O)CNC(=O)[C@H](Cc1ccc(O)cc1)NC(=O)[C@H](Cc1c[nH]c2ccccc12)NC(=O)[C@H](Cc1c[nH]cn1)NC(=O)[C@H](Cc1ccc(O)cc1)NC(=O)CCOCCOCCOCCOCCOCCOCCNC(=O)CC[C@H](C(=O)O)N1CCN(CC(=O)O)CCN(CC(=O)O)CC1)[C@@H](C)O)C(C)C)C(=O)O` [[^68Ga]Ga-1, metal not drawn], the logD in series [1] (setting [3]) is -3.44 ± 0.08. The half-life in series [2] is 4.928 ± 0.045 h.
`CC[C@H](C)[C@@H]1NC(=O)[C@H](Cc2ccc(O)cc2)NC(=O)[C@H](CCSC)NC(=O)[C@H](CS)NC(=O)[C@H](C(C)C)NC(=O)CNC(=O)[C@H](CC(=O)O)NC(=O)[C@H](Cc2c[nH]cn2)NC(=O)[C@H](CC(C)C)NC(=O)[C@@H](NC(=O)[C@@H](N)Cc2ccc(O)cc2)CSSC[C@@H](C(=O)N[C@@H](CC(N)=O)C(=O)NCCOCCOCCOCCOCCOCCOCCC(=O)N[C@@H](CCCCNC(=O)CC[C@H](C(=O)O)N2CCN(CC(=O)O)CCN(CC(=O)O)CC2)C(N)=O)NC(=O)[C@H](C)NC(=O)[C@H](Cc2ccc(O)cc2)NC(=O)[C@H](CCCCN)NC(=O)[C@H](CC(=O)O)NC(=O)[C@H](CC(C)C)NC(=O)[C@H](C)NC(=O)[C@H](CCC(=O)O)NC1=O` [[^68Ga]Ga-9, metal not drawn] (H-YCLHDGVCMYIEALDKYACN[PEG6]K(X1)-NH2; disulfide 2-19; N-terminus assumed) returned a logD in series [1] of -2.93 ± 0.08.
With `C[C@H](NC(=O)[C@H](CCC(=O)O)NC(=O)[C@H](Cc1ccc(O)cc1)NC(=O)[C@H](CC(=O)O)NC(=O)[C@H](Cc1ccc(O)cc1)NC(=O)[C@H](Cc1ccccc1)NC(=O)CNC(=O)[C@@H]1CCCN1C(=O)CNC(=O)[C@H](CC(N)=O)NC(=O)[C@H](CCC(=O)O)NC(=O)CNC(=O)[C@H](CO)NC(=O)[C@@H](N)Cc1c[nH]c2ccccc12)C(=O)NCCOCCOCCOCCOCCOCCOCCC(=O)N[C@@H](CCCCNC(=O)CC[C@H](C(=O)O)N1CCN(CC(=O)O)CCN(CC(=O)O)CC1)C(N)=O` [[^68Ga]Ga-11, metal not drawn] (H-WSGENGPGFYDYEA[PEG6]K(X1)-NH2), the logD in series [1] (setting [3]) was -3.98 ± 0.06. In addition, the half-life in series [2] is 9.37 ± 0.115 h.
As to `CSCC[C@H](NC(=O)[C@@H]1CCCN1C(=O)[C@@H](N)Cc1ccccc1)C(=O)N[C@@H](Cc1ccccc1)C(=O)N[C@@H](CC(N)=O)C(=O)N[C@@H](Cc1c[nH]cn1)C(=O)N[C@@H](Cc1c[nH]c2ccccc12)C(=O)N[C@@H](CCC(=O)O)C(=O)N[C@@H](CCC(N)=O)C(=O)N[C@@H](Cc1c[nH]c2ccccc12)C(=O)N1CCC[C@H]1C(=O)N1CCC[C@H]1C(=O)NCCOCCOCCOCCOCCOCCOCCC(=O)N[C@@H](CCCCNC(=O)CC[C@H](C(=O)O)N1CCN(CC(=O)O)CCN(CC(=O)O)CC1)C(N)=O` [[^68Ga]Ga-7, metal not drawn] (H-FPMFNHWEQWPP[PEG6]K(X1)-NH2), the logD in series [1] (setting [3]) is -3.03 ± 0.2. Besides, in series [2], the half-life was 1.11 ± 0.05 h.
For `CC(C)C[C@H](NC(=O)[C@H](Cc1c[nH]c2ccccc12)NC(=O)[C@H](Cc1ccccc1)NC(=O)[C@H](CCC(N)=O)NC(=O)[C@H](C)NC(=O)[C@H](CO)NC(=O)[C@H](CC(=O)O)NC(=O)[C@@H]1CCCN1C(=O)[C@H](CCCNC(=N)N)NC(=O)[C@@H](N)CC(N)=O)C(=O)N[C@@H](Cc1c[nH]cn1)C(=O)N[C@@H](Cc1c[nH]cn1)C(=O)NCCOCCOCCOCCOCCOCCOCCC(=O)N[C@@H](CCCCNC(=O)CC[C@H](C(=O)O)N1CCN(CC(=O)O)CCN(CC(=O)O)CC1)C(N)=O` [[^68Ga]Ga-6, metal not drawn] (H-NRPDSAQFWLHH[PEG6]K(X1)-NH2), in series [1] (setting [3]), the logD is -3.86 ± 0.11. For the same compound, in series [2], the half-life was 17.7 ± 0.717 h.

The values are drawn from PMC9963887, “Towards Radiolabeled EGFR-Specific Peptides: Alternatives to GE11” (Pharmaceuticals, 2023).
